# What was measured:
# [1] = target: T1, CMP-Sia (Mus musculus, UniProt Q61420); test: CPM thermal stability assay, CMP-Sia; set-up: species or system murine; details: CMC+0.04 wt %, 30° C., under the conditions used for the gel filtration analysis
# T1 construct: GFP-His (C, cleaved yes); made in house; host or cells: Saccharomyces cerevisiae
# T1 sequence (Q61420 1-336): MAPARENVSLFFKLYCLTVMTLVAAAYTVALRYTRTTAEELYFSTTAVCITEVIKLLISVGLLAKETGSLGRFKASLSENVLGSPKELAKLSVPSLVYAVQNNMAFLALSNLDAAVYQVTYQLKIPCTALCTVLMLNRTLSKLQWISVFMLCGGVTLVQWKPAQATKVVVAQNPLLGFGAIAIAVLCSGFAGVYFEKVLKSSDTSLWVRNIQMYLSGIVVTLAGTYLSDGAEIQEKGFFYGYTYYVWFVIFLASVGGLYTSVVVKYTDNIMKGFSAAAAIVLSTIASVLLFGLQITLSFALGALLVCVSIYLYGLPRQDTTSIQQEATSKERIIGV
# Method: FIG. 6. CPM assays for (a) CMP-Sia, (b) GlpG and (c) SQR solubilized with each new amphiphile or DDM. The coumarin moiety of CPM is internally quenched by the maleimide unit, but the coumarin becomes fluorescent following reaction with Cys side chain thiol groups exposed upon protein unfolding. The CPM assay can therefore be used to monitor the extent of protein unfolding. CMP-Sia and GlpG were initially extracted from the native membrane with 1% DDM in PBS, 10 mM imidazole (pH 8.0), 150 mM NaCl, 10% glycerol, and isolated in 20 mM Tris (pH 7.5), 150 mM NaCl containing 0.03% DDM. SQR was extracted from the membrane using 2% C12E9 in 20 mM potassium phosphate (pH 7.4), 0.2 M EDTA, and isolated in 20 mM Tris (pH 7.6), 0.2% decyl-β-D-maltoside (DM). […] The “Relative amount of folded protein” in each case is defined as follows: 100% corresponds to the fluorescence emission intensity at time=0 min; 0% corresponds to the lowest value measured among the amphiphile-treated samples for each protein during the 130 min assay period. […] For GlpG and SQR, 0% is defined by the lowest value measured for protein solubilized with DDM. […]
# CMP-Sia and GlpG were expressed as fusion proteins with a C-terminal GFP-His tag in Saccharomyces cerevisiae and Escherichia coli respectively. […]
# [2] = test system: LHI-RC superassembly; test: Extraction of LHI-RC superassembly from membranes; set-up: species or system R. capsulatus; details: 2 wt % GDN
# Method: The favorable MelB extraction performance of GDN led to the examination of this amphiphile for extraction of other IMPs. […] DDM and GDN were used to extract a CMP-Sia fusion protein bearing green fluorescent protein (GFP) at the C-terminus, after expression in Saccharomyces cerevisiae; the amount of solubilized protein was estimated by total fluorescence. GDN (2 wt %), DDM (1 wt %) and OG (1 wt %) gave ˜70%, ˜80% and ˜50% extraction yields, respectively.
# The procedure was performed according to the protocol reported by Chae and coworkers (Nat. Methods 2010, 7, 1003-1008).
# The solubilization and stability of the R. capsulatus superassembly were assessed according to the published protocol (Chae et al., J. Am. Chem. Soc. 2010, 132, 16750-16752). Briefly, specialized photosynthetic membranes obtained from an engineered strain of Rhodobacter (R.) capsulatus, U43[pUHTM86Bgl], lacking the LHII light-harvesting complex, were used. Solubilization of the LHI-RC superassembly began by thawing, homogenizing, and incubating frozen aliquots of R. capsulatus membranes at 32° C. for 30 min. Subsequent 30-min incubation was performed after adding DDM or LDAO at 1.0 wt % or GDN at 2.0 wt % in the solid form. […] To assess solubilization efficiency, UV-Vis spectra of the solubilized protein solutions were measured in a range of 650˜950 nm.
smiles,measurement,setting,value
"CCCCCCCCCCCCO[C@@H]1O[C@H](CO)[C@@H](O[C@H]2O[C@H](CO)[C@@H](O)[C@H](O)[C@H]2O)[C@H](O)[C@H]1O [DDM, dodecyl-β-D-maltoside, reference compound]","Relative amount of folded protein (CPM assay), CMP-Sia",[1],~20%
"C[C@@H]1CC[C@@]2(OC1)O[C@H]1C[C@H]3[C@@H]4CC=C5C[C@@H](OCCC(CO[C@@H]6OC(CO)[C@@H](O[C@H]7OC(CO)[C@@H](O)C(O)C7O)C(O)C6O)CO[C@@H]6OC(CO)[C@@H](O[C@H]7OC(CO)[C@@H](O)C(O)C7O)C(O)C6O)CC[C@]5(C)[C@H]4CC[C@]3(C)[C@@H]1[C@@H]2C (some centres unmarked) [GDN, glyco-diosgenin]",LHI-RC superassembly extraction compared with 1 wt % DDM,[2],Comparable results
